Common to all, as to assay type: in vivo
For experiment [1], the system named is PGC-1α. Description: PGC-1α mRNA expression in kidneys of old mice (Example 2). The following applies: kidneys of 21-month-old mice; 1 mg/kg body weight/day intraperitoneally for three weeks; FIG. 3A. On the procedure: (§1) FIGS. 3A-3F show mRNA expression of peroxisome proliferator-activated receptor-gamma coactivator (PGC)-1α (PGC-1α) (FIG. 3A), PGC-1β (FIG. 3B), ERR-alpha (ERRα) (FIG. 3C), p21 (FIG. 3D), interleukin (IL)-1β (FIG. 3E), and signal transducer and activator of transcription 3 (Stat3) (FIG. 3F) in the kidneys of 4-month old (“young”) and 21-month-old (“old”) mice, in which a cohort of old mice were administered a STING inhibitor (“SI”), C-176, as described in Example 2.
(§2) A study was conducted to evaluate expression levels of various markers and cytokines under inflammatory conditions, and the impact of administering a STING inhibitor on expression and protein levels.
(§3) In one aspect of the study, mRNA expression levels of PGC-1α, PGC-1β, ERRα, p21, IL-1β, and Stat3 were examined in kidneys of mice that are 4 months old (young) and kidneys of mice that are 21 months old (aged and marked by inflammation).
(§4) In a second aspect of the study, an inhibitor of STING, C-176, was administered (1 mg/kg body weight/day, administered intraperitoneally, for three weeks) to the 21-month-old mice.

A further experiment relates to PGC-1β. Description: PGC-1β mRNA expression in kidneys of old mice (Example 2). The following applies: kidneys of 21-month-old mice; 1 mg/kg body weight/day intraperitoneally for three weeks; FIG. 3B. On the procedure:
as §1, §2, §3, §4

For another experiment, the system named is ERRα. Kind of experiment: ERRα mRNA expression in kidneys of old mice (Example 2). The following applies: kidneys of 21-month-old mice; 1 mg/kg body weight/day intraperitoneally for three weeks; FIG. 3C. The procedure: as §1, §2, §3, §4
In another experiment the test system is p21. Description: p21 mRNA expression in kidneys of old mice (Example 2). The following applies: kidneys of 21-month-old mice; 1 mg/kg body weight/day intraperitoneally for three weeks; FIG. 3D. On the procedure: as §1, §2, §3, §4
The subject of experiment [2] is IL-1β. Kind of experiment: IL-1β mRNA expression in kidneys of old mice (Example 2). The following applies: kidneys of 21-month-old mice; 1 mg/kg body weight/day intraperitoneally for three weeks; FIG. 3E. The procedure:
as §1, §2, §3, §4

The test system of experiment [3] is Stat3. Description: Stat3 mRNA expression in kidneys of old mice (Example 2). The following applies: kidneys of 21-month-old mice; 1 mg/kg body weight/day intraperitoneally for three weeks; FIG. 3F. The procedure: as §1, §2, §3, §4
Experiment [4] has as its system PGC-1α. Kind of experiment: PGC-1α protein levels (immunoblot) in kidneys of old mice (Example 2). The following applies: kidneys of 21-month-old mice; 1 mg/kg body weight/day intraperitoneally for three weeks; FIGS. 4A and 4B. On the procedure: (§5) FIGS. 4A-4D show PGC-1α protein levels presented as an immunoblot (FIG. 4A) and quantified (FIG. 4B), and p-Stat3 protein levels presented as an immunoblot (FIG. 4C) and quantified (FIG. 4D), in the kidneys of 4-month old (“young”) and 21-month-old (“old”) mice, in which a cohort of the old mice were administered a STING inhibitor (“SI”), C-176, as described in Example 2.
as §2, §4
In general terms: Immunoblotting shows a protein as a band on a membrane.

Experiment [5] relates to Stat3. Description: Stat3 protein levels (immunoblot) in kidneys of old mice (Example 2). The following applies: kidneys of 21-month-old mice; 1 mg/kg body weight/day intraperitoneally for three weeks; FIGS. 4C and 4D. On the procedure:
as §5, §2, §4

The test system of experiment [6] is IL-1β. Kind of experiment: IL-1β mRNA expression in kidneys of db/db mice (Example 3). The following applies: kidneys of 4-month-old db/db mice; 1 mg/kg body weight/day intraperitoneally for eight weeks; FIG. 5. The procedure: (§6) A study was conducted to evaluate mRNA expression and protein levels of various markers and cytokines in kidneys of 4-month-old db/db mice, which is a model of type 2 diabetes due to a deficiency in leptin receptor activity, and in 4-month-old db/m mice, which are nondiabetic controls; and the effects of administering STING inhibitor C-176 (1 mg/kg body weight/day, administered intraperitoneally, for eight weeks) to these mice.

For another experiment, the system named is p-Stat3. Kind of experiment: p-Stat3 protein levels in kidneys of db/db mice (Example 3). The following applies: kidneys of 4-month-old db/db mice; 1 mg/kg body weight/day intraperitoneally for eight weeks; FIGS. 6A and 6B. On the procedure:
(§7) FIGS. 6A-6C show p-Stat3 protein levels presented as an immunoblot (FIG. 6A) and quantified (FIG. 6B), and protein levels of phospho-interferon regulatory factor (p-IRF) (FIG. 6C) in the kidneys of […] diabetic mice (“db/db”) and non-diabetic mice (“db/m”) mice, in which a cohort of the mice were administered STING inhibitor C-176, as described in Example 3.
as §6

Another experiment has as its system p-IRF3. Kind of experiment: p-IRF3 protein levels in kidneys of db/db mice (Example 3). The following applies: kidneys of 4-month-old db/db mice; 1 mg/kg body weight/day intraperitoneally for eight weeks; FIG. 6C. The procedure:
as §7, §6

Experiment [7] has as its system inflammation in the kidneys of diabetic mice. Kind of experiment: Inflammation in the kidneys of diabetic mice (Example 3). The following applies: db/db mice; 1 mg/kg body weight/day intraperitoneally for eight weeks. The procedure: as §6
Experiment [8] relates to STING. Kind of experiment: STING mRNA expression in kidneys of young and old mice (Example 1). The following applies: kidneys of 21-month-old mice; 25 mg/kg body weight/day intraperitoneally for eight weeks; FIG. 1A. The procedure:
(§8) FIGS. 1A-1B show mRNA expression of STING (FIG. 1A) and cyclic guanosine monophosphate-adenosine monophosphate (cyclic GMP-AMP) synthase (cGAS) (FIG. 1B) in the kidneys of 4-month old (“young”) and 21-month-old (“old”) mice, in which a cohort of mice were administered a pan estrogen-related receptor (ERR) agonist, as described in Example 1.
(§9) A study was conducted to evaluate STING and cGAS under inflammatory conditions.
(§10) In one aspect of the study, mRNA expression and protein levels of STING and cGAS were assessed in kidneys of mice that are 4 months old (young) and kidneys of mice that are 21 months old (aged and marked by inflammation).
(§11) In a second aspect of the study, 4-month-old mice and 21-month-old mice were treated with a pan ERR agonist, SLU-PP-332 (25 mg/kg body weight/day, administered intraperitoneally, for eight weeks).

The test system of experiment [9] is cGAS. Description: cGAS mRNA expression in kidneys of young and old mice (Example 1). The following applies: kidneys of 21-month-old mice; 25 mg/kg body weight/day intraperitoneally for eight weeks; FIG. 1B. The procedure: as §8, §9, §10, §11
For experiment [10], the system named is STING. Kind of experiment: STING protein levels (immunoblot) in kidneys of young and old mice (Example 1). The following applies: kidneys of 21-month-old mice; 25 mg/kg body weight/day intraperitoneally for eight weeks; FIGS. 2A and 2B. The procedure: (§12) FIGS. 2A-2D show STING protein levels presented as an immunoblot (FIG. 2A) and quantified (FIG. 2B), and cGAS protein levels presented as an immunoblot (FIG. 2C) and quantified (FIG. 2D), in the kidneys of 4-month old (“young”) and 21-month-old (“old”) mice, in which a cohort of mice were administered a pan ERR agonist, as described in Example 1.
as §9, §10, §11

Experiment [11] concerns cGAS. Description: cGAS protein levels (immunoblot) in kidneys of young and old mice (Example 1). The following applies: kidneys of 21-month-old mice; 25 mg/kg body weight/day intraperitoneally for eight weeks; FIGS. 2C and 2D. On the procedure:
as §12, §9, §10, §11

We go through two compounds from patent US20230201187A1, “USE OF NAD+ PRECURSORS, STING INHIBITORS, AND FXR AGONISTS FOR INHIBITING SARS-COV-2 (COVID-19)-INDUCED CYTOKINE RELEASE” (Georgetown University, priority 2020, published 2023).

Take `O=C(Nc1ccc(I)cc1)c1ccc([N+](=O)[O-])o1` [C-176, N-(4-iodophenyl)-5-nitro-2-furancarboxamide]: the “mRNA expression of PGC-1α” value in the experiment with PGC-1α [1] is given as “reversed the decrease”. Further, in the experiment on PGC-1β, the “mRNA expression of PGC-1β” value is listed as “reversed the decrease”. In addition, the “mRNA expression of ERRα” value in the experiment on ERRα is on record as “reversed the decrease”. Also, the “mRNA expression of p21” value with p21 was “reversed the increase”. Further, the “mRNA expression of IL-1β” value with IL-1β [2] is given as “reversed the increase”. For the same compound, in the experiment with Stat3 [3], the “mRNA expression of Stat3” value is given as “reversed the increase”. In the experiment on PGC-1α [4], the “protein levels of PGC-1α” value is reported as “reversed the decrease”. The “protein levels of Stat3” value with Stat3 [5] is “reversed the increase”. Moreover, in the experiment with IL-1β [6], the “mRNA expression of IL-1β (activation of IL-1β)” value is recorded as “reversed the activation”. For the same compound, in the experiment on p-Stat3, the p-Stat3 levels result is on record as “reversed the increase”. The p-IRF3 levels result in the experiment with p-IRF3 is recorded as “reversed the increase”. For the same compound, the “inflammation in the kidneys of diabetic mice” value in [7] is on record as “decreases inflammation”.
`O=C(N/N=C/c1ccc2ccccc2c1)c1ccc(O)cc1` [SLU-PP-332]: the “mRNA expression of STING” value in the experiment with STING [8] is “significantly reversed the increase”. Also, the “mRNA expression of cGAS” value in the experiment with cGAS [9] is “significantly reversed the increase”. Further, in the experiment with STING [10], the “protein levels of STING” value was “significantly reversed the increase”. For the same compound, the “protein levels of cGAS” value in the experiment with cGAS [11] is recorded as “significantly reversed the increase”.
